Laboratory results from ChEMBL document CHEMBL3352750, “Novel indole based NNRTIs with improved potency against wild type and resistant HIV” (Bioorg Med Chem Lett, 2014).
pIC50: −log10 of the molar value. Calls of active or inactive are those of the source. The calls are words filed in the database; no cut-off is given here.

Key:
[1] = test system: Human immunodeficiency virus 1; test: Antiviral activity against HIV1 infected in HEK293T cells by p24 ELISA based phenotypic assay; assay type: functional, organism-based; conditions: Human immunodeficiency virus 1, HEK-293T
[2] = Cytotoxicity against HEK293T cells; assay type: cell-based, HEK-293T; conditions: human
[3] = test system: Human immunodeficiency virus 1; test: Antiviral activity against HIV1 containing reverse transcriptase M230I mutant infected in HEK293T cells by p24 ELISA based phenotypic assay; assay type: functional, organism-based; conditions: HEK-293T
[4] = test system: Human immunodeficiency virus 1; test: Antiviral activity against HIV1 containing reverse transcriptase V106M mutant infected in HEK293T cells by p24 ELISA based phenotypic assay; assay type: functional, organism-based; conditions: HEK-293T
[5] = test system: Human immunodeficiency virus 1; test: Antiviral activity against HIV1 containing reverse transcriptase K103N mutant infected in HEK293T cells by p24 ELISA based phenotypic assay; assay type: functional, organism-based; conditions: HEK-293T
[6] = test system: Human immunodeficiency virus 1; test: Antiviral activity against HIV1 containing reverse transcriptase K101P mutant infected in HEK293T cells by p24 ELISA based phenotypic assay; assay type: functional, organism-based; conditions: HEK-293T
[7] = test system: Human immunodeficiency virus 1; test: Antiviral activity against HIV1 containing reverse transcriptase E138Q mutant infected in HEK293T cells by p24 ELISA based phenotypic assay; assay type: functional, organism-based; conditions: HEK-293T
[8] = test system: Human immunodeficiency virus 1; test: Antiviral activity against HIV1 containing reverse transcriptase Y181C mutant infected in HEK293T cells by p24 ELISA based phenotypic assay; assay type: functional, organism-based; conditions: HEK-293T
[9] = test system: Human immunodeficiency virus 1; test: Antiviral activity against HIV1 containing reverse transcriptase G190A mutant infected in HEK293T cells by p24 ELISA based phenotypic assay; assay type: functional, organism-based; conditions: HEK-293T
[10] = test system: Human immunodeficiency virus 1; test: Antiviral activity against HIV1 containing reverse transcriptase Y181I mutant infected in HEK293T cells by p24 ELISA based phenotypic assay; assay type: functional, organism-based; conditions: HEK-293T
[11] = test system: Human immunodeficiency virus 1; test: Antiviral activity against HIV1; assay type: functional, organism-based

SMILES	pIC50 [1]	CC50 [2]	other results
O=C(NCCO)c1[nH]c2ccc(Cl)cc2c1C1(c2ccccc2)CC1	6.68		
COC(c1ccccc1)c1c(S(=O)(=O)C(F)(F)F)[nH]c2ccc(Cl)cc12 (centres undefined)	5.92	24200 nM	
CCOC(=O)c1[nH]c2ccc(Cl)cc2c1C(O)c1ccccc1 (centres undefined)	5.94	22700 nM	
COC(c1ccccc1)c1c[nH]c2ccc(Cl)cc12 (centres undefined)	5.61	67000 nM	
CCOC(=O)c1[nH]c2ccc(Cl)cc2c1C(OC)c1cc(C)cc(C)c1 (centres undefined)	7.52	36500 nM	inhibition [3]: Active; inhibition [4]: Active; inhibition [5]: Active; inhibition [6]: Active; inhibition [7]: Active; inhibition [8]: inactive; inhibition [9]: Active; inhibition [10]: Active
COC(c1cc(C)cc(C)c1)c1c[nH]c2ccc(Cl)cc12 (centres undefined)	6.52	67700 nM	
CCOC(=O)c1[nH]c2ccc(Cl)cc2c1C(OCC)c1ccccc1 (centres undefined)	7.52	22800 nM	
NNC(=O)c1[nH]c2ccc(Cl)cc2c1C1(c2ccccc2)CC1	5.36		
Cc1ccnc2c1NC(=O)c1cccnc1N2C1CC1 [NEVIRAPINE]	6.92		pIC50 [11]: 7.00
CCOC(=O)c1[nH]c2ccc(Cl)cc2c1C1(c2cccs2)CC1			pIC50 [11]: 7.19
CCOC(=O)c1[nH]c2ccc(Cl)cc2c1C(OC)c1ccccc1 (centres undefined)	7.70	25300 nM	inhibition [4]: inactive; inhibition [5]: inactive; inhibition [8]: inactive; inhibition [9]: Active
O=C(OCCO)c1[nH]c2ccc(Cl)cc2c1C1(c2ccccc2)CC1	6.15		
CCOC(=O)c1[nH]c2ccc(Cl)cc2c1C1(c2ccccc2)CC1	5.32		pIC50 [11]: 7.07
